# According to PubChem BioAssay AID330 (DTP/NCI, 2004):
# Where “and” joins values, the source holds several entries; their conditions need not be identical. Equal entries are not always repeated. Toxic doses and inconclusive results are not listed.
# System: P388 leukemia ip, CD2F1 mice, survival T/C
# Experiment: NCI In Vivo Anticancer Drug Screen. Data for tumor model P388 Leukemia (intraperitoneal) in CD2F1 (CDF1) mice
# Conditions: endpoint: median survival time, higher = longer survival
# Method: The antitumor activity of compounds was measured in mice bearing transplantable tumors. Survival or tumor size were measured and the results are expressed as the measurement made in the treated group (T) divided by the measurement made in the vehicle treated control group (C). The tumor model used in this assay is P388 Leukemia (intraperitoneal) in CD2F1 (CDF1) mice
# [1] = dose: 0.78 mg/kg/injection, schedule: Q01DX009 (ip), vehicle: Klucel (hydroxypropylcellulose) (HPC)
# [2] = dose: 1.56 mg/kg/injection, schedule: Q01DX009 (ip), vehicle: Klucel (hydroxypropylcellulose) (HPC)
# [3] = dose: 3.12 mg/kg/injection, schedule: Q01DX009 (ip), vehicle: Klucel (hydroxypropylcellulose) (HPC)
# [4] = dose: 6.25 mg/kg/injection, schedule: Q01DX009 (ip), vehicle: Klucel (hydroxypropylcellulose) (HPC)
# [5] = dose: 12.5 mg/kg/injection, schedule: Q01DX009 (ip), vehicle: Klucel (hydroxypropylcellulose) (HPC)
# [6] = dose: 25.0 mg/kg/injection, schedule: Q01DX009 (ip), vehicle: Klucel (hydroxypropylcellulose) (HPC)
# [7] = dose: 25.0 mg/kg/injection, schedule: Q01DX009 (ip), vehicle: saline
# [8] = dose: 12.5 mg/kg/injection, schedule: Q01DX009 (ip), vehicle: distilled water + Tween-80
# [9] = dose: 25.0 mg/kg/injection, schedule: Q01DX009 (ip), vehicle: distilled water + Tween-80
# [10] = dose: 25.0 mg/kg/injection, schedule: Q01DX009 (ip), vehicle: saline with Tween-80
# [11] = dose: 50.0 mg/kg/injection, schedule: Q01DX009 (ip), vehicle: saline with Tween-80
# [12] = dose: 100.0 mg/kg/injection, schedule: Q01DX009 (ip), vehicle: saline with Tween-80
# [13] = dose: 50.0 mg/kg/injection, schedule: Q01DX005 (ip), vehicle: saline with Tween-80
# [14] = dose: 100.0 mg/kg/injection, schedule: Q01DX005 (ip), vehicle: saline with Tween-80
# [15] = dose: 200.0 mg/kg/injection, schedule: Q01DX005 (ip), vehicle: saline with Tween-80
# [16] = dose: 60.0 mg/kg/injection, schedule: Q01DX005 (ip), vehicle: saline with Tween-80
# [17] = dose: 120.0 mg/kg/injection, schedule: Q01DX005 (ip), vehicle: saline with Tween-80
# [18] = dose: 240.0 mg/kg/injection, schedule: Q01DX005 (ip), vehicle: saline with Tween-80
# [19] = dose: 50.0 mg/kg/injection, schedule: Q01DX009 (ip), vehicle: Klucel (hydroxypropylcellulose) (HPC)
# [20] = dose: 100.0 mg/kg/injection, schedule: Q01DX009 (ip), vehicle: Klucel (hydroxypropylcellulose) (HPC)
# [21] = dose: 200.0 mg/kg/injection, schedule: Q01DX009 (ip), vehicle: Klucel (hydroxypropylcellulose) (HPC)
# [22] = dose: 100.0 mg/kg/injection, schedule: Q04DX002 (ip), vehicle: saline with Tween-80
# [23] = dose: 100.0 mg/kg/injection, schedule: Q04DX002 (ip), vehicle: saline
# [24] = dose: 200.0 mg/kg/injection, schedule: Q04DX002 (ip), vehicle: saline with Tween-80
# [25] = dose: 200.0 mg/kg/injection, schedule: Q04DX002 (ip), vehicle: saline
# [26] = dose: 400.0 mg/kg/injection, schedule: Q04DX002 (ip), vehicle: saline with Tween-80
# [27] = dose: 200.0 mg/kg/injection, schedule: Q01DX009 (ip), vehicle: saline with Tween-80
smiles,measurement,setting,value
O=[N+]([O-])c1ccc(Sc2ncnc3nc[nH]c23)c2nonc12,T/C,[1],105 % of control
same,T/C,[2],109 % of control and 86 % of control
same,T/C,[3],99 % of control and 104 % of control
same,T/C,[4],105 % of control and 98 % of control
same,T/C,[5],113 % of control and 116 % of control and 122 % of control
same,T/C,[6],112 % of control
CNC(=O)n1cccc(OC)c1=O,T/C,"dose: 12.5 mg/kg/injection, schedule: Q01DX009 (ip), vehicle: saline",102 % of control and 107 % of control
same,T/C,[7],100 % of control and 111 % of control
CO/C=C1\CC(=O)N(c2ccccc2)C1=O,T/C,"dose: 100.0 mg/kg/injection, schedule: Q04DX003 (ip), vehicle: saline",106 % of control
same,T/C,"dose: 200.0 mg/kg/injection, schedule: Q04DX003 (ip), vehicle: saline",100 % of control
same,T/C,"dose: 400.0 mg/kg/injection, schedule: Q04DX003 (ip), vehicle: saline",97 % of control
COc1cc2c(c(OC)c1OC)-c1ccc(S(C)(=O)=O)c(=O)cc1[C@@H](NC(C)=O)CC2,T/C,[1],105 % of control and 106 % of control
same,T/C,[2],105 % of control and 120 % of control
same,T/C,[3],106 % of control and 111 % of control
same,T/C,[4],115 % of control
same,T/C,[5],105 % of control and 122 % of control
same,T/C,[6],108 % of control
CCOC1(C)OC2OC(COC(c3ccccc3)(c3ccccc3)c3ccccc3)C(OC(=O)c3ccccc3)C(OC(=O)c3ccccc3)C2O1 (centres undefined),T/C,[8],98 % of control
same,T/C,[9],90 % of control
same,T/C,"dose: 50.0 mg/kg/injection, schedule: Q01DX009 (ip), vehicle: distilled water + Tween-80",99 % of control
CCCOSSOCCC,T/C,[10],103 % of control
same,T/C,[11],100 % of control
same,T/C,[12],99 % of control
COC1(OC)C(c2ccccc2)C(C#N)(S(=O)(=O)c2ccccc2)C1(OC)OC (centres undefined),T/C,"dose: 60.0 mg/kg/injection, schedule: Q01DX005 (ip), vehicle: Klucel (hydroxypropylcellulose) (HPC)",100 % of control
same,T/C,"dose: 120.0 mg/kg/injection, schedule: Q01DX005 (ip), vehicle: Klucel (hydroxypropylcellulose) (HPC)",98 % of control
same,T/C,"dose: 240.0 mg/kg/injection, schedule: Q01DX005 (ip), vehicle: Klucel (hydroxypropylcellulose) (HPC)",100 % of control
Cc1cc2c(c3c1c(=O)c1ccccc1n3C)C=CC(C)(C)O2,T/C,[13],114 % of control
same,T/C,[14],108 % of control
same,T/C,[15],120 % of control
same,T/C,"dose: 300.0 mg/kg/injection, schedule: Q01DX005 (ip), vehicle: saline with Tween-80",120 % of control
CC1(C)COC1(c1ccccc1)c1cccnc1 (centres undefined),T/C,[16],97 % of control
same,T/C,[17],102 % of control
same,T/C,[18],93 % of control
O=C1OC(OCC#CCOC2OC(=O)C(Cl)=C2Cl)C(Cl)=C1Cl (centres undefined),T/C,"dose: 15.0 mg/kg/injection, schedule: Q01DX005 (ip), vehicle: saline with Tween-80",112 % of control
same,T/C,"dose: 30.0 mg/kg/injection, schedule: Q01DX005 (ip), vehicle: saline with Tween-80",105 % of control
same,T/C,[16],115 % of control and 93 % of control
Nn1nnnc1-c1ccccc1,T/C,[19],96 % of control
same,T/C,[20],100 % of control
same,T/C,[21],95 % of control
O=C(CSc1ccccn1)C1=S=C2C=CC=CN2C1=O,T/C,[13],92 % of control
same,T/C,[14],95 % of control
same,T/C,[15],93 % of control
COc1ccc(CCNC(=O)c2ccc(CSc3ccc(Cl)cc3)o2)cc1OC,T/C,[13],105 % of control
same,T/C,[14],100 % of control
same,T/C,[15],93 % of control
O=C(O)CC(=O)C(=O)O,T/C,[22],98 % of control
same,T/C,[23],101 % of control
same,T/C,[24],112 % of control
same,T/C,[25],97 % of control
same,T/C,[26],112 % of control
Fc1c2ccccc2c2ccc3cccc4ccc1c2c43,T/C,"dose: 50.0 mg/kg/injection, schedule: Q04DX002 (ip), vehicle: saline",103 % of control and 104 % of control
same,T/C,[22],117 % of control
same,T/C,[23],100 % of control and 110 % of control
same,T/C,[25],100 % of control and 113 % of control
same,T/C,"dose: 400.0 mg/kg/injection, schedule: Q04DX002 (ip), vehicle: saline",103 % of control
CC(=O)Nc1ccc[nH]c1=O,T/C,[6],108 % of control and 96 % of control
same,T/C,[7],99 % of control and 110 % of control
same,T/C,[19],99 % of control and 104 % of control
same,T/C,"dose: 50.0 mg/kg/injection, schedule: Q01DX009 (ip), vehicle: saline",108 % of control and 92 % of control
same,T/C,[20],99 % of control and 104 % of control
same,T/C,"dose: 100.0 mg/kg/injection, schedule: Q01DX009 (ip), vehicle: saline",103 % of control and 117 % of control
same,T/C,[21],101 % of control and 96 % of control
same,T/C,"dose: 200.0 mg/kg/injection, schedule: Q01DX009 (ip), vehicle: saline",101 % of control and 103 % of control
same,T/C,"dose: 400.0 mg/kg/injection, schedule: Q01DX009 (ip), vehicle: Klucel (hydroxypropylcellulose) (HPC)",109 % of control and 96 % of control
same,T/C,"dose: 400.0 mg/kg/injection, schedule: Q01DX009 (ip), vehicle: saline",104 % of control and 108 % of control
COc1cccc2c1C(=O)c1c(O)c3c(c(O)c1C2=O)CC(O)CC3OC1CC(N)C(O)C(C)O1 (centres undefined),T/C,"dose: 3.13 mg/kg/injection, schedule: Q01DX009 (ip), vehicle: water",157 % of control
same,T/C,"dose: 6.25 mg/kg/injection, schedule: Q01DX009 (ip), vehicle: water",173 % of control
CC(=O)c1nc(-c2ccccc2)[nH]c1C,T/C,[10],101 % of control
same,T/C,[11],104 % of control
same,T/C,[12],105 % of control
same,T/C,"dose: 100.0 mg/kg/injection, schedule: Q04DX003 (ip), vehicle: saline with Tween-80",99 % of control
same,T/C,"dose: 200.0 mg/kg/injection, schedule: Q04DX003 (ip), vehicle: saline with Tween-80",90 % of control
CCOC(=O)C1CCC=CC1OC(C)=O (centres undefined),T/C,"dose: 100.0 mg/kg/injection, schedule: Q01DX001 (ip), vehicle: olive oil, sesame oil, peanut oil",112 % of control
same,T/C,"dose: 200.0 mg/kg/injection, schedule: Q01DX001 (ip), vehicle: olive oil, sesame oil, peanut oil",108 % of control
same,T/C,"dose: 400.0 mg/kg/injection, schedule: Q01DX001 (ip), vehicle: olive oil, sesame oil, peanut oil",107 % of control
NC(Cc1c[nH]c2ccc([N+](=O)[O-])cc12)C(=O)O (centres undefined),T/C,[11],92 % of control
same,T/C,[12],91 % of control
same,T/C,[27],94 % of control
same,T/C,"dose: 400.0 mg/kg/injection, schedule: Q01DX009 (ip), vehicle: saline with Tween-80",91 % of control
CNC(=O)OCc1c(COC(=O)NC)c(-c2ccccc2)n(-c2ccc(Cl)c(Cl)c2)c1C,T/C,[8],117 % of control
same,T/C,[9],160 % of control
same,T/C,"dose: 100.0 mg/kg/injection, schedule: Q01DX009 (ip), vehicle: distilled water + Tween-80",155 % of control and 165 % of control
same,T/C,"dose: 200.0 mg/kg/injection, schedule: Q01DX009 (ip), vehicle: distilled water + Tween-80",155 % of control and 184 % of control
same,T/C,"dose: 400.0 mg/kg/injection, schedule: Q01DX009 (ip), vehicle: distilled water + Tween-80",87 % of control
COC(=O)c1c(-c2ccccc2)c(-c2ccccc2)[nH]c(=O)c1C#N,T/C,[16],108 % of control
same,T/C,[17],100 % of control
same,T/C,[18],91 % of control
CCOc1ccc(Nc2cc([N+](=O)[O-])ccc2C(=O)O)cc1,T/C,[11],91 % of control
same,T/C,[27],108 % of control
COc1cc(NCC(O)CN(CC(C)C)C2CCCC2)c2ncccc2c1 (centres undefined),T/C,"dose: 12.5 mg/kg/injection, schedule: Q01DX005 (ip), vehicle: saline",100 % of control
same,T/C,"dose: 25.0 mg/kg/injection, schedule: Q01DX005 (ip), vehicle: saline",99 % of control
CCn1cc(C(=O)NC(C)C(=O)NC(C)P(=O)(O)O)c(=O)c2ccc(C)nc21 (centres undefined),T/C,[22],101 % of control
same,T/C,[24],102 % of control
same,T/C,[26],101 % of control
